Measured values taken from patent US20250152613A1, “COMPOSITIONS AND METHODS FOR COVID-19 TREATMENT” (101 THERAPEUTICS LTD., priority 2022, published 2025).

Assays:
[1] = tested on: moderate COVID-19 patients; test: Phase II/Phase III study of Compound 1 Vs Dexamethasone for moderate COVID-19 with Standard of Care; type: in vivo, human; conditions: expected
Method: A prospective, randomized, multicenter, parallel group, double-blind, adaptive Phase II/Phase III study to evaluate safety and efficacy of Compound 1 Vs Dexamethasone for moderate COVID-19 disease along with Standard of Care is performed. The total duration of treatment administration for all patients is 3 days. The endpoints of the study are to evaluate efficacy of Compound 1 versus dexamethasone in moderate COVID-19 patients.
Compound 1 is contained in vials, each vial containing 20 mg of Compound 1 to be reconstituted in saline (0.9% NaCl) for bolus intravenous (IV) injection of 5 ml of solution.
The study is designed to determine rate of treatment-emergent adverse events (AE) and serious adverse events (SAE) including changes in clinical condition, vital signs and laboratory parameters.
Other endpoints of the study include: lowering mortality 28 or 60 days from administration; lowering rate of Intensive care units (ICU) admission; lowering mechanical ventilation or vasopressor therapy (28 days follow-up); improved clinical recovery rate [Time Frame: Day 10]-Proportion of patients who recovered within 10 days for which recovery is defined when the patient improves by 2 points in 11-point ordinal scale; an improvement in temperature, heart rate and oxygen saturation on days 1, 2, 4 and 7; decrease in viral load relative to admission levels according to RT-PCR from nasopharyngeal swab on days 3, 5 and 10; changes in levels of CRP, ferritin and CBC with differential; change in cytokine profile and lymphocyte sub-populations; and measurement of ACTH and morning cortisol levels.
Approximately 318 eligible patients are randomized in a 1:1 ratio to one of 2 treatment groups. Group 1: Compound 1, 20 mg per day+Standard of care. Group 2: Dexamethasone 6 mg+Standard of care.
Total expected study duration is approximately 60 days consisting of: a screening period: 7 days (Day-7 to Day 1) prior to randomization. Treatment period: Day 1 to Day 3. End of treatment assessment: Day 3 (for patients receiving Compound 1) and Day X (for Dexamethasone arm, based on investigator' discretion). […]

[2] = tested on: bleomycin-induced PF mice model; test: bleomycin-induced pulmonary fibrosis (PF) mice model; type: in vivo, C57BL/6 mice
Description: Post COVID-19 pulmonary fibrosis (PF) is defined as the presence of persistent and different fibrotic tomographic changes, often combined with impairment in pulmonary function tests. The pathogenesis of post-COVID-19 PF is partially known and likely multifactorial. Excessive production of reactive oxygen species and non-protective mechanical ventilation are potential triggers for post-COVID-19 PF. To explore the beneficial effect of compound 1 in pulmonary fibrosis, a bleomycin-induced PF mice model was utilized. Bleomycin is known for its ability to induce lung injury resulting in an acute inflammatory response, and the inflammatory phase is followed by fibrotic changes. In this model, direct administration of bleomycin to the lungs decreases survival of treated mice, due to vast pulmonary damage. The study was performed in 5 treatment groups of C57BL/6 mice (n=10-12 per group) and included early or late treatment with compound 1 (1 mg/mouse), early treatment with dexamethasone (DEX) in an amount of 0.45 mg/mouse, vehicle, and naïve control groups. Early treatment was initiated on day 1, on the same day as bleomycin administration. Late treatment was initiated on day 14. The test items were injected in the vehicle, dexamethasone and Compound 1 early treatment groups, on days 1, 2, 3, 7, 14, 21 and 28. In the late treatment group, Compound 1 was administered on days 14, 15, 16, 21, 28 and 31. The test items were injected intravenously through the tail vein after pulmonary fibrosis model induction (bleomycin was induced by intratracheal administration of bleomycin (3.5 U/kg)). Animals were monitored for morbidity, mortality, body weight, and clinical signs. Selected clinical signs (i.e., physical appearance, activity, ability to respond to external stimulus, eyes, and respiration quality) were scored to provide a clinical score. Cytokine levels in BALF (Day 33) and serum (Days 17 & 32) were determined.

[3] = according to the literature; cited from earlier work
COVID-19 patients = conditions: diabetics; RECOVERY trial (Rayman et al. 2021); cited from earlier work
[4] = Compound 1 20 mg per day i.v. for 3 days + Standard of care vs Dexamethasone 6 mg
[5] = 10-30 mg i.v., single and 3 day repeated
[6] = out of 23 possibly or probably related AEs
[7] = early treatment from day 1, i.v., compound 1 1 mg/mouse, DEX 0.45 mg/mouse, day 33, mean±standard deviation
[8] = late treatment from day 14, i.v., 1 mg/mouse, day 33, mean±standard deviation
[9] = late treatment with Compound 1, day 33

C[C@@H]1C[C@H]2[C@@H]3CCC4=C/C(=N/OCCCO[C@H]5O[C@H](CO)[C@@H](O)[C@H](O)[C@@H]5O)C=C[C@]4(C)[C@@]3(F)[C@@H](O)C[C@]2(C)[C@@]1(O)C(=O)CO [Compound 1, 1-((8S,9R,10S,11S,13S,14S,16R,17R,E)-9-fluoro-11,17-dihydroxy-10,13,16-trimethyl-3-((3-(((2S,3S,4S,5S,6R)-3,4,5-trihydroxy-6-(hydroxymethyl)tetrahydro-2H-pyran-2-yl)oxy)propoxy)imino)-6,7,8,9,10,11,12,13,14,15,16,17-dodecahydro-3H-cyclopenta[a]phenanthren-17-yl)-2-hydroxyethan-1-one]
hyperglycemia relative to the dexamethasone group [1, 4]: lower | recovery from moderate COVID-19 relative to the dexamethasone group [1, 4]: enhanced | mortality ([1]; Compound 1 20 mg per day i.v. for 3 days + Standard of care): lower mortality | correlation between dose escalation and AEs frequency or severity (healthy volunteers; 10, 20, 30 mg i.v.): no correlation | AE reported after exposure to Investigational Product (healthy volunteers; [5]): 29 | AEs possibly related to the IP (healthy volunteers; [5]): 13 | AEs probably related to the IP (healthy volunteers; [5]): 10 | Dose-Limiting Toxicities (DLTs) (healthy volunteers; [5]): No DLTs | Serious Adverse Events (SAEs) or severe AEs (healthy volunteers; [5]): No Serious Adverse Events (SAEs) or severe AEs | cases of hyperglycemia (healthy volunteers; [5]): single case | possibly or probably related AEs, total (healthy volunteers; [5]): 23 | post exposure AEs assessed as not related (healthy volunteers; [5]): 6 | total Adverse Events (AE) reported during the study (healthy volunteers; 15 healthy participants, 10, 20, 30 mg single i.v. doses and 30 mg once a day for 3 days, includes 4 before exposure): 33 | blood glucose changes after administration (healthy volunteers; 4 hours post any of the 24 administrations): no changes | severity of adverse events (healthy volunteers; all events): mild to moderate | severity of the hyperglycemia event (healthy volunteers; one individual): mild and transient | Blood Glucose after increase (healthy volunteers; one individual, increased from 97): 105 mg/dL | anxiety, number (healthy volunteers; [6]): 1 | anxiety, percent (healthy volunteers; [6]): 4.34% | chemistry AEs, number (healthy volunteers; [6]): 8 | chemistry AEs, percent (healthy volunteers; [6]): 34.8% | fatigue reports, number (healthy volunteers; [6]): 2 | fatigue reports, percent (healthy volunteers; [6]): 8.7% | hematology AEs, number (healthy volunteers; [6]): 6 | hematology AEs, percent (healthy volunteers; [6]): 26.1% | hypertension, number (healthy volunteers; [6]): 1 | hypertension, percent (healthy volunteers; [6]): 4.34% | insomnia, number (healthy volunteers; [6]): 2 | insomnia, percent (healthy volunteers; [6]): 8.7% | noncardiac chest pain, number (healthy volunteers; [6]): 1 | noncardiac chest pain, percent (healthy volunteers; [6]): 4.34% | skin rash, number (healthy volunteers; [6]): 2 | skin rash, percent (healthy volunteers; [6]): 8.7% | % Fibrosis - Digital morphometry [2, 7]: 8.25 ± 1.26% | Fibrosis score (MT) [2, 7]: 2.25 ± 0.5 | Pathological score (H&E) [2, 7]: 2.5 ± 0.58 | % Fibrosis - Digital morphometry [2, 8]: 5.2 ± 1.1% | Fibrosis score (MT) [2, 8]: 2 ± 0.7 | Pathological score (H&E) [2, 8]: 2 ± 0.7 | mortality rate (FIG. 1) ([2]; late treatment from day 14, compared with DEX and Compound 1 early groups, similar to naïve): lower mortality rate | overall effect on mortality and disease progression vs early treatment with DEX or Compound 1 ([2]; late treatment with Compound 1): more profound effect | lung fibrosis by histopathological evaluation vs. vehicle control [2, 9]: reduction in lung fibrosis | pathological and fibrosis scores and percentage of lung fibrosis compared to DEX treatment [2, 9]: slightly lower

C[C@@H]1C[C@H]2[C@@H]3CCC4=CC(=O)C=C[C@]4(C)[C@@]3(F)[C@@H](O)C[C@]2(C)[C@@]1(O)C(=O)CO [DEX, dexamethasone, reference compound]
% Fibrosis - Digital morphometry ([2]; mouse, in vivo, iv): 6 ± 1.41% | Fibrosis score (MT) ([2]; mouse, in vivo, iv): 2.25 ± 0.5 | Pathological score (H&E) ([2]; mouse, in vivo, iv): 2.25 ± 0.5 | most frequently reported adverse effect [3]: insomnia | blood glucose levels (COVID-19 patients): significantly elevated
